In patent publication US20120128650A1, “EXTENDED ACTING OXYGEN GENERATING COMPOSITION FOR TREATING MICROBIAL INFECTIONS” (DEC INTERNATIONAL NZ LIMITED, priority 2009, published 2012):

Columns and labels:
[1] = pH, oxygen and peroxide analysis after addition of coated sodium percarbonate to milk; type: physicochemical
Description: Sodium percarbonate coated with ethyl cellulose was added to 20 mL pasteurized and homogenized milk. The pH value (by pH Meter), the concentration of oxygen (by potentiometric electrode) and peroxide (by chemical test strips) were measured at interval sampling time, as shown in FIG. 4A-C.

Staphylococcus aureus = experiment: Growth of Staphylococcus aureus in mastitic milk, colony counts; type: cell-based; conditions: 10 micromoles per ml added at 60 minutes, oxygen-limited
Description: Milk was collected at the morning milking, using aseptic technique, from a quarter that had been identified as having a sub-clinical infection with a single organism. The milk was taken to the laboratory and within 2 hours of collection divided amongst sterile incubation containers. The container was either a sealed vessel that was filled so there was no head-space and could be sampled through a rubber septum (limited oxygen) or a flask with a large surface area and head space, incubated in a shaking incubator (oxygenated). Because milk is aerated during collection and handling the samples should have the same oxygen content at the start of incubation. The growth rate was determined by sampling at regular intervals, diluting into recovery diluent, plating and counting the number of colonies.

SMILES: O=C([O-])[O-].O=C([O-])[O-].OO.OO.OO.[Na+].[Na+].[Na+].[Na+] [sodium percarbonate]
- amount required to deliver 30 mg peroxide [1]: 70 to 100 mg

SMILES: OO [Hydrogen peroxide]
- number of viable organisms (Staphylococcus aureus; after 4 hours, from around 3000 cfu per ml at 60 minutes): 20 cfu per ml
- number of viable organisms (Staphylococcus aureus; at 10 hours and thereafter): no detectable organisms
